Experimental data from ChEMBL document CHEMBL3286117, “Synthesis and pharmacological evaluation of analogues of benzyl quinolone carboxylic acid (BQCA) designed to bind irreversibly to an allosteric site of the M ₁ muscarinic acetylcholine receptor” (J Med Chem, 2014).
Calls of active or inactive are those of the source. The calls are words filed in the database; no cut-off is given here.

What was measured:
[1] = molecular target: T1, Muscarinic acetylcholine receptor M1 (Homo sapiens) (UniProt P11229); test: Displacement of [3H]NMS from human M1 mAChR expressed in FlpIn-CHO cells after 4 hrs by microplate counting analysis; type: cell-based
T1 sequence (whole entry): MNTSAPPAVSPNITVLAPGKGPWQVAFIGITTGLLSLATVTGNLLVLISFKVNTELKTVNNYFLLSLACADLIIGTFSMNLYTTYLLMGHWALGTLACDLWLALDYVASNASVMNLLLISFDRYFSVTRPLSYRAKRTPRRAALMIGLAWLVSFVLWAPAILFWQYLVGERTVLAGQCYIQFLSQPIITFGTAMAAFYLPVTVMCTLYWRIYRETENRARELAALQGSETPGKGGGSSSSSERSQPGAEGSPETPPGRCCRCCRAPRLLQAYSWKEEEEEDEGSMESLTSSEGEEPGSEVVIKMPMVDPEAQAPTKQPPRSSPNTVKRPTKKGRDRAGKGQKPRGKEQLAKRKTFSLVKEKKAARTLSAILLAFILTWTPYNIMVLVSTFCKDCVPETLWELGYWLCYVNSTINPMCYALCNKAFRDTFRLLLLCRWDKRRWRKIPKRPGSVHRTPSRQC

[2] = molecular target: T2, Muscarinic acetylcholine receptor M1 (Homo sapiens, UniProt P11229); test: Activation of human M1 mAChR expressed in FlpIn-CHO cells assessed as […] ERK1/2 phosphorylation incubated for 5 mins by Alphascreen assay; type: cell-based
T2 sequence (P11229 whole entry): T1 sequence (whole entry)

[3] = molecular target: T1, Muscarinic acetylcholine receptor M1 (Homo sapiens); test: Irreversible binding to human M1 mAChR expressed in FlpIn-CHO cell membrane assessed as receptor alkylation incubated for 30 mins prior to [3H]NMS addition measured after 4 hrs by radioligand displacement analysis (reference value: 100%); type: cell membranes
[4] = molecular target: T1, Muscarinic acetylcholine receptor M1 (Homo sapiens); test: Irreversible binding to human M1 mAChR expressed in FlpIn-CHO cells assessed as receptor alkylation incubated for 30 mins prior to [3H]NMS addition measured 4 hrs after compound washout by whole cell radioligand displacement analysis relative to vehicle-treated control; type: cell-based

Compound	pKb [1]	EC50 [2]	Bmax [3]	Activity [4]
O=C(CBr)Nc1ccc(Cn2cc(C(=O)O)c(=O)c3ccccc32)cc1	4.72	1.58 µM	–	–
COc1ccc(Cn2cc(C(=O)O)c(=O)c3ccccc32)cc1	–	–	90.8%	inactive
O=C(O)c1cn(Cc2ccc(S(=O)(=O)F)cc2)c2ccccc2c1=O	3.97	0.316 µM	–	–
O=C(O)c1cn(Cc2ccc(N=C=S)cc2)c2ccccc2c1=O	5.22	0.389 µM	50%	inactive
O=C(O)c1cn(Cc2ccc(N3C(=O)C=CC3=O)cc2)c2ccccc2c1=O	5.09	0.417 µM	–	–
